Results reported in patent publication US7320981B2, “Variolin derivatives as anti-cancer agents” (Pharma Mar, S.A., priority 2000, dated 2008).

What was measured:
A-549 = assay: SRB cell growth/viability assay, A-549
Description: (§1) A colorimetric type of assay, using sulforhodamine B (SRB) reaction has been adapted for a quantitative measurement of cell growth and viability: see Skehan, P. A. et al. J. Natl. Cancer Inst., 1990, 82, 1107-1112. This form of the assay employs 96 well cell culture microplates of 9 mm diameter (Faircloth, G. T.; Stewart, D. and Clement, J. J., Journal of Tissue and Culture Methods, 1983, 11, 201-205; Mosmann, T. Journal of Immunological Methods, 1983, 65, 55-63.).
(§2) Most of the cell lines are obtained from American Type Culture Collection (ATCC) derived from different human cancer types. Cells are maintained in RPMI 1640 10% FBS, supplemented with 0.1 g/l penicillin and 0.1 g/l streptomycin sulfate and then incubated at 37° C., 5% CO2 and 98% humidity. For the experiments, cells were harvested from subconfluent cultures using trypsin and resuspended in fresh medium before plating.
(§3) Cells are seeded in 96 well microtiter plates, at 5×10^3 cells per well in aliquots of 195 μl medium, and they are allowed to attach to the plate surface by growing in drug free medium for 18 hours. Afterward, samples are in aliquots of 5 pi in a ranging from 10 to 10-8 μg/ml dissolved in DMSO/EtOH (0.2% in PS buffer). After 48 hours exposure, the antitumour effect are measured by the SRB methodology: cells are fixed by adding 50 μl of cold 50% (w/v) trichloroacetic acid (TCA) and incubating for 60 minutes at 4° C. Plates are washed with deionized water and dried. 100 μl of SRB solution (0.4% w/v in 1% acetic acid) is added to each microtiter well and incubated for 10 minutes at room temperature. Unbound SRB is removed by washing with 1% acetic acid. Plates are air-dried and bound stain is solubilized with Tris buffer. Optical densities are read on an automated spectrophotometric plate reader at a single wavelength of 490 nm.
(§4) The values for mean +/− SD of data from triplicate wells are calculated Some parameters for cellular responses can be calculated: […], TGI=total growth inhibition (cytostatic effect) and LC=cell killing (cytotoxic effect).

MCF-7 = assay: SRB cell growth/viability assay, MCF-7
Description: as §1, §2, §3, §4

MB-231 = assay: SRB cell growth/viability assay, MB-231
Description: as §1, §2, §3, §4

OVCAR-3 = assay: cells; assay type: cell-based; conditions: Table 1, ovary cell line OVCAR-3, 48 hours exposure, SRB
Description: Plates are washed with deionized water and dried.

MEL-28 = assay: SRB cell growth/viability assay, MEL-28
Description: as §1, §2, §3, §4

DU-145 = assay: SRB cell growth/viability assay, DU-145
Description: as §1, §2, §3, §4

HT-29 = assay: SRB cell growth/viability assay, HT-29
Description: as §1, §2, §3, §4

SW-620 = assay: SRB cell growth/viability assay, SW-620
Description: as §1, §2, §3, §4

A498 = assay: SRB cell growth/viability assay, A498
Description: as §1, §2, §3, §4

CSc1nccc(-c2c3cccnc3n3c(N)nccc23)n1 [Compound 5, thiodeoxyvariolin]
GI50 (A-549; Homo sapiens, A549, 48 h, read-out: GI50 (50% growth inhibition)): 1 µM | CC50 (A-549; Homo sapiens, A549, 48 h, read-out: LC50 (50% net cell killing, cytotoxic effect)): 10 µM | TGI (total growth inhibition, cytostatic effect) (A-549; Table 1, NSCL cell line A-549, 48 hours exposure, SRB): 3.E−06 M | GI50 (MCF-7; Homo sapiens, MCF7, 48 h, read-out: GI50 (50% growth inhibition)): 2 µM | CC50 (MCF-7; Homo sapiens, MCF7, 48 h, read-out: LC50 (50% net cell killing, cytotoxic effect)): 30 µM | TGI (total growth inhibition, cytostatic effect) (MCF-7; Table 1, breast cell line MCF-7, 48 hours exposure, SRB): 6.E−06 M | GI50 (MB-231; Homo sapiens, 48 h, read-out: GI50 (50% growth inhibition)): 2 µM | CC50 (MB-231; Homo sapiens, 48 h, read-out: LC50 (50% net cell killing, cytotoxic effect)): 10 µM | TGI (total growth inhibition, cytostatic effect) (MB-231; Table 1, breast cell line MB-231, 48 hours exposure, SRB): 6.E−07 M | GI50 (OVCAR-3; Homo sapiens, read-out: GI50 (50% growth inhibition)): 1 µM | CC50 (OVCAR-3; Homo sapiens, read-out: LC50 (50% net cell killing, cytotoxic effect)): 3 µM | TGI (total growth inhibition, cytostatic effect) (OVCAR-3): 2.E−06 M | GI50 (MEL-28; Homo sapiens, SK-MEL-28, 48 h, read-out: GI50 (50% growth inhibition)): 0.06 µM | CC50 (MEL-28; Homo sapiens, SK-MEL-28, 48 h, read-out: LC50 (50% net cell killing, cytotoxic effect)): 6 µM | TGI (total growth inhibition, cytostatic effect) (MEL-28; Table 1, melanoma cell line MEL-28, 48 hours exposure, SRB): 3.E−07 M | GI50 (DU-145; Homo sapiens, DU-145, 48 h, read-out: GI50 (50% growth inhibition)): 0.3 µM | CC50 (DU-145; Homo sapiens, DU-145, 48 h, read-out: LC50 (50% net cell killing, cytotoxic effect)): 3 µM | TGI (total growth inhibition, cytostatic effect) (DU-145; Table 1, prostate cell line DU-145, 48 hours exposure, SRB): 1.E−06 M | GI50 (HT-29; Homo sapiens, HT-29, 48 h, read-out: GI50 (50% growth inhibition)): 0.6 µM | CC50 (HT-29; Homo sapiens, HT-29, 48 h, read-out: LC50 (50% net cell killing, cytotoxic effect)): 10 µM | TGI (total growth inhibition, cytostatic effect) (HT-29; Table 1, colon cell line HT-29, 48 hours exposure, SRB): 2.E−06 M | GI50 (SW-620; Homo sapiens, SW-620, 48 h, read-out: GI50 (50% growth inhibition)): 3 µM | CC50 (SW-620; Homo sapiens, SW-620, 48 h, read-out: LC50 (50% net cell killing, cytotoxic effect)): 30 µM | TGI (total growth inhibition, cytostatic effect) (SW-620; Table 1, colon cell line SW-620, 48 hours exposure, SRB): 1.E−05 M | GI50 (A498; Homo sapiens, A498, 48 h, read-out: GI50 (50% growth inhibition)): 0.6 µM | CC50 (A498; Homo sapiens, A498, 48 h, read-out: LC50 (50% net cell killing, cytotoxic effect)): 3 µM | TGI (total growth inhibition, cytostatic effect) (A498; Table 1, kidney cell line A498, 48 hours exposure, SRB): 2.E−06 M
